“Also recorded” adds a separate entry of the source.
How the values were obtained:
[1] = system: IgE antibody in the serum from a WDEIA patient; assay: Epitope mapping (1): peptide array, chemiluminescent measurement of IgE binding using human serum; details: 15-amino-acid peptides on array; 2% serum; sera from WDEIA patients 1 to 3 vs healthy individuals 1 and 2; FIG. 1
Experimental: Epitope mapping was performed by using a library of overlapping peptides (15 amino acids in length) corresponding to the full-length amino acid sequence of ω-5 gliadin from bread wheat (SEQ ID NO: 51).
Each synthesized peptide was shifted by 10 amino acids. In other words, each peptide overlaps with the previous peptide and the next peptide, each by 5 amino acids.
Intavis CelluSpots™ technique was used for preparing a peptide array. Specifically, the peptide array was prepared by the following procedures: (1) synthesizing a target peptide on an amino-modified cellulose disk by using an automated synthesizer (MultiPep RS from Intavis), (2) dissolving said amino-modified cellulose disk to obtain a solution of a peptide bound to cellulose, and (3) spotting said peptide bound to cellulose on a coated slide glass. The detail of each procedure is as follows.
Said peptide array was used to measure whether each peptide fragment is bound by an IgE antibody in the serum from a WDEIA patient due to an antigen-antibody reaction, or not. This measurement was performed in accordance with the following procedures. […]
(7) Chemiluminescence of the peptide that was treated as described in the above (1) to (6) was measured by using Amersham Imager 600.

[2] = system: IgE antibody from the patient; assay: Epitope mapping (3): alanine scanning ELISA, patient serum; format: binding, human; details: alanine-substituted peptides; serum from patient 1; FIG. 3
Experimental: (§1) The amino acid sequence of SEQ ID NO: 22 and the amino acid sequence of SEQ ID NO: 29 identified in the above-mentioned (B) were subjected to a technique referred to as alanine scanning (Non Patent Literature 1). Specifically, a library of peptide fragments was prepared by a technique similar to that described above in (B), in which the peptide fragments were produced by substituting one amino acid at a time with alanine in each amino acid sequence of […], starting from the amino acid at an amino terminal side. Then, a technique similar to that described above in (B) was used to measure whether each peptide fragment was bound by the IgE antibody in the serum from a patient and a healthy subject, or not. When alanine substitution of an amino acid at a certain position led to loss or reduction of binding activity to the IgE antibody from the patient and development of binding activity to the IgE antibody from the healthy subject, the amino acid was determined to be an amino acid important for expression of inherent antigenicity or an amino acid affecting expression of inherent antigenicity. […] A common sequence important for expression of inherent antigenicity was discovered by this analysis.
(§2) The result of alanine scanning performed on the amino acid sequence of SEQ ID NO: 22 and the result of alanine scanning performed on the amino acid sequence of SEQ ID NO: 29 are shown in FIG. 3, respectively.

[3] = system: anti-human IgE antibody as a secondary antibody; assay: Epitope mapping (3): alanine scanning ELISA, secondary antibody used alone; format: binding; details: alanine-substituted peptides, FIG. 3
Source text: FIG. 3 is a diagram showing the result of investigation of positions important for exerting antigenicity in SEQ ID NOs: 22 and 29 by an alanine scanning technique. The number on the horizontal axis denotes a value of coloration intensity at 450 nm measured by an absorption spectrometer (Abs.). In this figure, a double wavy line denotes that a value is not shown, P1 denotes that the serum from patient 1 was used, N1 and N2 denote that the sera from healthy individuals 1 and 2 were used, and 2nd denotes that an anti-human IgE antibody as a secondary antibody was used alone.
as §1, §2

[4] = system: IgE antibody from the healthy subject; assay: Epitope mapping (3): alanine scanning ELISA, healthy subject serum; format: binding, human; details: alanine-substituted peptides; sera from healthy individuals 1 and 2; FIG. 3
Experimental: as §1, §2

| Substance | binding of IgE antibody to peptide spot (chemiluminescence) [1] | binding activity to the IgE antibody from the patient (absorbance at 450 nm) [2] | binding activity to the anti-human IgE antibody as the secondary antibody (absorbance at 450 nm) [3] | binding activity to the IgE antibody from the healthy subject (absorbance at 450 nm) [4] |
| --- | --- | --- | --- | --- |
| SEQ ID NO: 13: peptide of amino acids 161 to 175 of the full-length ω-5 gliadin from bread wheat (SEQ ID NO: 51) (PQQQPPQQHQFPQQQ; epitope) | bound, in a manner specific to a patient |  |  |  |
| SEQ ID NO: 7: amino acid at position 3 in SEQ ID NO: 22 substituted with alanine (QQFPQQEAPQQQQFP; epitope) |  | retained binding activity; also recorded: substantially increased binding activity | developed little binding activity | developed little binding activity |
| SEQ ID NO: 6: peptide of amino acids 221 to 235 of the full-length ω-5 gliadin from bread wheat (SEQ ID NO: 51) (QQFPQQEFPQQQQFP; epitope) | bound, in a manner specific to a patient |  |  |  |

— patent publication US11186617B2, “Epitope” (HOYU CO., LTD., priority 2017, dated 2021)
